{
  "source": "patent US4664850A",
  "about": "“Novel radioactive steroids” (Roussel Uclaf, priority 1983, dated 1987)",
  "key": {"glucocorticoid receptors [1]": {"system": "glucocorticoid receptors", "settings": "versus other steroid receptors, particularly mineralocorticoid; TEUTSCH et al. 1981; cited from earlier work"}, "[2]": {"target": "T1, glucocorticoid receptors of cytosol of rat thymus (Rattus norvegicus, UniProt P06536)", "T1 construct": "carbon-dextran adsorption", "T1 sequence (P06536 1-795)": "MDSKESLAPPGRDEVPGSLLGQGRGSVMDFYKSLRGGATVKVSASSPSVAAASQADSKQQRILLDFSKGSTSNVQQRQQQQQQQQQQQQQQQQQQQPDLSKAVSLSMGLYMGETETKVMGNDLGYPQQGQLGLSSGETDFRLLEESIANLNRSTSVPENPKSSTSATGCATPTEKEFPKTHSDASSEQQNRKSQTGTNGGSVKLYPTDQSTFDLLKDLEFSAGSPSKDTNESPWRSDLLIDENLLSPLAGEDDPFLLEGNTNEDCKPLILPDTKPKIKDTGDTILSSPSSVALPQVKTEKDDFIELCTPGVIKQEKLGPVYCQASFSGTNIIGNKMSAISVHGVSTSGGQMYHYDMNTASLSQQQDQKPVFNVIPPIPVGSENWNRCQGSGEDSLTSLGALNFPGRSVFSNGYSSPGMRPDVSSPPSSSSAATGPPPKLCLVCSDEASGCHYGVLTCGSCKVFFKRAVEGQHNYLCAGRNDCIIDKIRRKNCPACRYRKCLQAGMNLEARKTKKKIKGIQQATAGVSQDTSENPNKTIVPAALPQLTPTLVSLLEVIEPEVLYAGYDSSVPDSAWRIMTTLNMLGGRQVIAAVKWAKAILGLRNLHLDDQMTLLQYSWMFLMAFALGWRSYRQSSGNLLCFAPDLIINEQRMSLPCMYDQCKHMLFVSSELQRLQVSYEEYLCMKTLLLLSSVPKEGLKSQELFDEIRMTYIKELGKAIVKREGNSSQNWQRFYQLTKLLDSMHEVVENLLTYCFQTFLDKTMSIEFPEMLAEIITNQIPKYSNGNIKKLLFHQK", "test": "Fixation on glucocorticoid receptors of rat thymus cytosol (carbon-dextran adsorption)", "assay_type": "binding", "procedure": "(§1) (d) At 0° C. and 15° C., product A forms complexes with thymus glucocorticoid receptors which are stable for at least 24 hours. […] For this reason, it permits the total number of glucocorticoid fixation sites to be determined in different physiological conditions."}, "[3]": {"system": "glucocorticoid receptors of the hippocampus", "test": "Dissociation from glucocorticoid receptors of hippocampus cytosol", "assay_type": "binding"}, "plasmatic proteins": {"system": "plasmatic proteins", "test": "Specific fixation on plasmatic proteins", "assay_type": "binding", "settings": "animals or humans"}, "[4]": {"test": "Stability and metabolism under in vitro incubation conditions", "assay_type": "in vitro ADME", "settings": "for metabolism in vitro in certain tissues: working in vitro, incubation conditions", "procedure": "as §1"}, "glucocorticoid receptors [5]": {"system": "glucocorticoid receptors", "test": "Selectivity of fixation on steroid receptors", "assay_type": "binding", "settings": "compared with similar non-radioactive products", "source_text": "651-665 (1981)]. Otherwise, other natural or synthetic corticoids which are used for this type of experiment, simultaneously fix on other steroid receptors and particularly on mineralocorticoid receptors. However, during such experiments with non-radioactive 6-methyl-17α-(prop-1-ynyl)-Δ^1,4,6 -androstatriene-11β,17β-diol-3-one, particularly when the tissues […] examined included simultaneously glucocorticoid and mineralocorticoid receptors, it was often necessary to adopt a succession of long and complicated methods.\nBecause of the radioactivity of the products of formula I, it is much easier to reveal the existence of the glucocorticoid receptors in the tissues of organs when mineralocorticoid receptors are also present, thanks to the use of the usual methods of liaison measurements taking advantage of radioactive products. In addition, what was not possible with a non-radioactive product, such, for example, as determining of the number of sites of fixation of the glucocorticoid receptors, becomes realizable by the use of the products of formula I."}, "[6]": {"settings": "0° C. and 15° C., 24 hours, thymus receptor incubation"}},
  "data": [
    {"compound": "CC#CC1(O)CCC2C3C=C(C)C4=CC(=O)C=CC4(C)C3C(O)CC21C", "note": "(stereo not drawn) [6-methyl-17α-(prop-1-ynyl)-Δ^1,4,6-androstatriene-11β,17β-diol-3-one]", "values": [
      {"measurement": "selectivity of fixation on glucocorticoid receptors", "setting": "glucocorticoid receptors [1]", "result": "fixes selectively on the glucocorticoid receptors"}
    ]},
    {"compound": "[3H]C([3H])([3H])C1=CC2C(C(O)CC3(C)C2CCC3(O)C#CC)C2(C)C=CC(=O)C=C12", "note": "(stereo not drawn) [Product A, 6-methyl-^3 H3-17α-(prop-1-ynyl)-Δ^1,4,6-androstatriene-11β,17β-diol-3-one]", "values": [
      {"measurement": "non-specific fixation", "setting": "[2]; 0° C. and 15° C., 24 hours", "result": "only shows a weak non-specific fixation"},
      {"measurement": "constant of association (Ka)", "setting": "[2]; 0° C., rat thymus cytosol, adsorption by carbon-dextran", "result": "~10^9 M^-1"},
      {"measurement": "constant of association relative to dexamethazone", "setting": "[2]; 0° C., rat thymus cytosol, compared with dexamethazone", "result": "about twice as high as that of dexamethazone"},
      {"measurement": "stability of complexes with thymus glucocorticoid receptors", "setting": "[2]; at 0° C. and 15° C.", "result": "at least 24 hours"},
      {"measurement": "replacement of non-radioactive corticosterone and cortisol fixed on glucocorticoid receptors", "setting": "[2]; incubation at 15° C. for 24 hours", "result": "totally replaces"},
      {"measurement": "shape of dissociation curve", "setting": "[2]; thymus", "result": "a curve with one slope"},
      {"measurement": "speed of association (K+1)", "setting": "[2]; towards the glucocorticoid receptors", "result": "~10^6 M^-1 mn^-1"},
      {"measurement": "shape of dissociation curve", "setting": "[3]", "result": "a curve with one slope"},
      {"measurement": "specific fixation on plasmatic proteins", "setting": "plasmatic proteins", "result": "does not give rise to any specific fixation"},
      {"measurement": "loss of tritium", "setting": "[4]; [6]", "result": "does not show any loss of tritium"},
      {"measurement": "metabolism under incubation conditions", "setting": "[4]; [6]", "result": "is not subject to metabolism"},
      {"measurement": "selective reactivity in respect of the glucocorticoid receptors", "setting": "glucocorticoid receptors [5]", "result": "the same selective reactivity"}
    ]},
    {"compound": "C[C@]12C[C@H](O)[C@H]3[C@@H](CCC4=CC(=O)CC[C@@]43C)[C@@H]1CC[C@@H]2C(=O)CO", "note": "[corticosterone, reference compound]", "values": [
      {"measurement": "metabolism in vitro in certain tissues", "setting": "[4]", "result": "are metabolized in certain tissues"}
    ]},
    {"compound": "C[C@]12CCC(=O)C=C1CC[C@@H]1[C@@H]2[C@@H](O)C[C@@]2(C)[C@H]1CC[C@]2(O)C(=O)CO", "note": "[cortisol, reference compound]", "values": [
      {"measurement": "metabolism in vitro in certain tissues", "setting": "[4]", "result": "are metabolized in certain tissues"}
    ]},
    {"compound": "^3 H-corticosterone [reference compound]", "values": [
      {"measurement": "shape of dissociation curve", "setting": "[3]", "result": "a dissociation curve with two slopes"}
    ]}
  ]
}
